Earlier results as cited in US20110171717A1, “METHOD FOR ENHANCING […]” (priority 2006, published 2011).

Test system: polymerase
Conditions: cited from earlier work; for effect on polymerase activity: known from Weyant et al., BioTechniques 1990

Compound | effect on polymerase activity | effect on polymerase activity at low concentration (e.g., 0.01% of SDS)
Sodium deoxycholate | inhibit a polymerase activity | 
CCCCCCCCCCCC(=O)N(C)CC(=O)[O-].[Na+] [sodium N-lauroyl sarcosinate, N-Lauroylsarcosine-sodium salt] | inhibit a polymerase activity | 
CCCCCCCCCCCCOS(=O)(=O)[O-].[Na+] [SDS, Sodium dodecyl sulfate] | inhibit a polymerase activity | inhibit a polymerase activity even at low concentrations
